# Patent publication US20160168185A1 (BAYLOR COLLEGE OF MEDICINE, priority 2013, published 2016)
# Where two headings read alike, the source gives them in different places.
# Columns and labels:
# [1] = continuous infusion, subcutaneously implanted osmotic pump; cited from earlier work
# [2] = test system: MV4-11 MLL leukemia mouse model; details: cited from earlier work
# [3] = test system: histone methyltransferases CARM1, PRMT1 and SUV39H1
# [4] = test system: MDA-MB231; experiment: Apoptosis of MDA-MB231, FACS with Annexin-V assay; details: 10-day treatment
# [5] = test system: claudin-1, -3, E-cadherin, Snail1, Zeb1, Zeb2 expression in MDA-MB231; experiment: qPCR of cell-cell adhesion and EMT gene expression in MDA-MB231; type: cell-based
# Source text: Fourth, qPCR was used to find if treatment with SYC-522 affects gene expression of cell-cell adhesion and EMT genes. […].
# [6] = Human liver microsome stability assay; type: in vitro ADME
# [7] = test system: panel of other HMTs; experiment: Activity against a panel of other HMTs
# [8] = Human plasma stability assay; type: in vitro ADME
# Procedure: For human plasma stability assay, to human plasma (500 μL) was added a test compound to a final concentration of 5 μM and incubated at 37° C. at approximately 60 rpm on an orbital shaker. Aliquots of 50 μL were taken from the reaction solution at 0, 15, 30, 45 and 60 minutes. The reaction was stopped by the addition of 6 volumes of cold acetonitrile. Samples were centrifuged at 20,000 g for 15 minutes to precipitate protein. An aliquot of 150 μL of the supernatant was used to determine the remaining amount of the test compound, using the same LC/MS/MS method described above. All experiments were performed in duplicate.
# [9] = test system: H3K79 methylation in MV4-11 cells; experiment: cells; details: Homo sapiens, MV4-11, 96 h, read-out: IC50 of H3K79 methylation inhibition
structure (smiles),measurement,setting,value
CC(C)N(CCCNC(=O)Nc1ccc(C(C)(C)C)cc1)C[C@H]1O[C@@H](n2ccc3c(N)ncnc32)[C@H](O)[C@@H]1O [EPZ004777],stable plasma drug concentration,[1],~0.5 µM
same,in vivo efficacy in MLL leukemia mouse model in words,[2],weak in vivo activity
same,in vivo efficacy in MLL leukemia mouse model in words,[2]; listed as Compound 1,relatively weak in vivo efficacy
"Nc1ncnc2c1ncn2[C@@H]1O[C@H](CSCC[C@H](N)C(=O)O)[C@@H](O)[C@H]1O [SAH, S-(5′-adenosyl)-L-homocysteine, reference compound]","activity against CARM1, PRMT1 and SUV39H1 (other HMTs) in words",[3],broad activity
CC(C)N(CCCNC(=O)Nc1ccc(C(C)(C)C)cc1)C[C@H]1O[C@@H](n2cnc3c(N)ncnc32)[C@H](O)[C@@H]1O [SYC-522],apoptosis of MDA-MB231 at 2 μM,[4]; 2 μM,negligible apoptosis
same,apoptosis of MDA-MB231 at 10 μM,[4]; 10 μM,18.4%
same,Zeb1 and Zeb2 expression,[5],unchanged or slightly increased
same,expression of Snail1,[5],large decreased expression
same,"increase of the expression of claudin-1, -3 and E-cadherin",[5]; dose-dependent,≤ 3.9 fold
same,metabolic stability in human liver microsomes in words,[6],quickly degraded
"CNc1ncnc2c1ncn2[C@@H]1O[C@H](CSCC[C@H](N)C(=O)O)[C@@H](O)[C@H]1O [compound 24, N6-methyl-SAH]",activity against a panel of other HMTs in words,[7],inactive
"CC(C)N(CCCNC(=O)Nc1ccc(C(C)(C)C)cc1)CC1=C[C@@H](n2cnc3c(N)ncnc32)[C@H](O)[C@@H]1O [compound of Formula VII, 1-(3-((((3R,4S,5R)-3-adenosyl-4,5-dihydroxycyclopent-1-en-1-yl)methyl)-(isopropyl)amino)propyl)-3-(4-(tert-butyl)phenyl)urea]","activity against CARM1, PRMT1 and SUV39H1 (other HMTs) in words",[3],no activity
same,stability in human plasma in words,[8],stable
same,IC50,[9],~0.2 µM
